Experimental data as given in patent US20160113895A1, “Novel Use of Adapalene in Treating Esophageal Cancer and Gastrointestinal Stromal Tumor” (Biodelight Biotech Inc., priority 2013, published 2016).

Tests used:
A549 implanted tumors = assay: Subcutaneous A549 xenograft model, groups 2a-2c, o.p.; conditions: for Tumor inhibition rate (%): A549, o.p. once daily, Tarceva 20 mpk; for Tumor inhibition rate (%) / Body weight change (%): NSL-8 70 mpk; for Body weight change (%): A549 tumor-bearing mice, Tarceva 20 mpk o.p.
Protocol: The antitumor efficacy of the drug lead nsl-8 searched was studied using the subcutaneous xenografted A549 and HCC827 lung cancer tumor models in vivo. […] Mice were maintained in individual ventilated cages (IVC, max. 4 mice/cage) at constant temperature and humidity. Animal weights were determined three times (Monday, Wednesday and Friday) for groups 1a and 1b or two times (Monday and Thursday) for groups 2a-2c and 3a-3c animals. Animal behaviour was monitored daily.
On day 0, either 2×10^6 A549 or 2×10^6 HCC827 tumor cells in 100 μL PBS were implanted into the subcutaneous space of the left flank of all corresponding BALB/c nude and SCID mice, respectively. In the following, tumor sizes were determined by caliper measurement. Tumor sizes were calculated according to the formula W^2×Lg/2 (Lg=length and W=the perpendicular width of the tumor, L>W). On day 48 or 30, after mean tumor volumes had reached approx. 100 mm^3, the corresponding tumor-bearing animals were randomized into 2 groups of 8 (A549 model: groups 1a and 1b) or 10 animals (A549 model: groups 2a and 2b) according to tumor sizes. On day 24 or 28, after mean tumor volumes had reached approx. 100 mm^3, the corresponding tumor-bearing animals were randomized into 2 groups of 10 animals (HCC827 model: groups 3a and 3b) according to tumor sizes. […] The percentage of tumor growth inhibition (TGI) was calculated using the following formula: […]
where T and C represent the mean tumor volume of the treatment and the control group, respectively.
The solution was aliquoted into several 15 ml sterile centrifuge tubes in 650 μl quantity per tube and then stored frozen at −80° C. until use. […] Animals of group 1b received 40 mg/kg nsl-8 dosage solution once daily through i.p. route on days 48-52 and 62-66, while those of groups 2b and 3b received 70 mg/kg nsl-8 dosage solution once daily through o.p. route on days 1-14 (group 2b) and days 1-14 (group 3b), respectively (Table 4).
Groups 1a and 1b (A549 model) were terminated on day 69, while groups 2a-2c (A549 model) and 3a-3c (HCC827 model) were terminated on day 15. At necropsy, animals were killed by cervical dislocation. Primary tumor weights and volumes were determined. The tumor volume and weight were analysed using descriptive data analysis (Mean, SEM, Median). Statistical analysis of efficacy data was performed using the unpaired t-test. All the data analyses were performed using GraphPad Prism 5 from GraphPad Software, Inc., San Diego, USA.
The serum level of blood urea nitrogen (BUN) was measured for assessing the renal function while those of alanine aminotransferase (ALT) and aspartate aminotransferase (AST) were measured using Ektachem DT system (Johnson & Johnson Clinical Diagnostics) for assessing the liver function. The EDTA treated anticoagulated blood samples were also collected for making a complete peripheral blood count by using a Hematology Analyzer (Sysmex, XT-1800i).
For this study, 0.161 ml nsl-8 stock solution made in DMSO was mixed with 1.339 ml 0.9% w/v saline so that the volume of a final dosage solution prepared to feed an animal was 1.5 ml and containing 10% DMSO. Therefore, both administration routes and vehicles used in treating groups 2a-2b and 3a-3b animals were quite different from that used in treating groups 1a-1b animals.

[1] = molecular target: T1, recombinant wild type human EGFR kinase domain (Homo sapiens, UniProt P00533); assay: Radiometric protein kinase enzymatic assay; format: biochemical; conditions: text value (FIG. 1)
T1 construct: A recombinant wild type human EGFR kinase domain expressed in Sf9 insect cells; GST; made in house; host or cells: Sf9 insect cells
From the text: Except Tarceva® or Erlotinib which was purchased from LC Laboratories, all the screened compounds were purchased from Sigma-Aldrich. A recombinant wild type human EGFR kinase domain expressed in Sf9 insect cells as a GST-fusion protein was used in the enzymatic assay. The recombinant protein was purified by a GSH-affinity column and the purity of the protein was examined by SDS-PAGE/Coomassie staining and the identity was checked by mass spectroscopy. A radiometric protein kinase assay was used for measuring the kinase activity of the EGFR protein kinase. All the assays were performed in 96-well FlashPlates™ from PerkinElmer (Boston, Mass., USA) in a 50 µL, reaction volume. […] The reaction cocktails were incubated at 30° C. for 60 minutes. […] Incorporation of ^33Pi was determined with a microplate scintillation counter. […]
The median value of the counts in column 1 (n=8) of each assay plate was defined as “low control”. This value reflects unspecific binding of radioactivity to the plate in the absence of a protein kinase but in the presence of the substrate. […] The residual activity (in %) for each well of a particular plate was calculated by using the following formula: […]
The residual activities for each concentration and the drug IC50 values were calculated using GraphPad Prism software. […]

T1 sequence (P00533 712-979 limits assumed): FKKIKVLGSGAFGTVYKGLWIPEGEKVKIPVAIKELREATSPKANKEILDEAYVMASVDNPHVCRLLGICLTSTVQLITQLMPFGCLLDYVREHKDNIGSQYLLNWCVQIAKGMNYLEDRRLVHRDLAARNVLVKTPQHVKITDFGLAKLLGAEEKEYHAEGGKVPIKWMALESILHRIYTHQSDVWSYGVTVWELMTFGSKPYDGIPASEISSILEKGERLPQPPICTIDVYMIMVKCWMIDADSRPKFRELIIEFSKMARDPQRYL

cell counts of white blood cell, red blood cell, or platelet versus vehicle (A549 implanted tumors; A549 model, peripheral blood at end-point, nsl-8 70 mg/kg, Tarceva 20 mg/kg o.p.): no significant difference | decline of body weight upon completion of the experiments (A549 implanted tumors; group 2b, 70 mg/kg daily o.p.): 2.0% | IC50 [1]: 0.515 µM
SMILES: COc1ccc(-c2ccc3cc(C(=O)O)ccc3c2)cc1C12CC3CC(CC(C3)C1)C2 [nsl-8, 6-[3-(1-adamantyl)-4-methoxyphenyl]-2-naphthalenecarboxylic acid]
serum levels of BUN, ALT, and AST among treatment groups (A549 implanted tumors; A549 model, upon completion of the experiments): no significant difference | Tumor inhibition rate (%) (A549 implanted tumors; Day 0): 0% | Body weight change (%) (A549 implanted tumors; Day 0): 0% | Tumor inhibition rate (%) (A549 implanted tumors; Day 3): 7.1% | Body weight change (%) (A549 implanted tumors; Day 3): −1.9% | Tumor inhibition rate (%) (A549 implanted tumors; Day 7): 12.0% | Body weight change (%) (A549 implanted tumors; Day 7): −1.3% | Tumor inhibition rate (%) (A549 implanted tumors; Day 10): 17.8% | Body weight change (%) (A549 implanted tumors; Day 10): −2.6% | Tumor inhibition rate (%) (A549 implanted tumors; Day 14): 19.1% | Body weight change (%) (A549 implanted tumors; Day 14): −2.0%
